From patent publication US5914339A, “Substituted 1,3-benzodioxoles” (American Home Products Corporation, priority 1997, dated 1999)
Structures can show the parent of a compound that is named as a salt.

Biological target: human β2 adrenergic receptor (Homo sapiens, UniProt P07550)
Test: cell-based
Conditions: not given
Procedure: The activity of the test compounds on human β-adrenergic receptors was determined with Chinese hamster ovary (CHO) cells transfected with human β2, or β1 adrenergic receptors. Agonist activity is indicated by increased cAMP levels in the CHO cells. Selectivity of the test compounds for the β3 receptor was assessed by comparison with results in β2 and β1 adrenergic receptor transfected cells.
1). Chinese hamster ovary (CHO) cells transfected with human β2, or β1 adrenergic receptors were used in the assay.
2). Cells were grown to confluent conditions in 24 well plates.
3). Drugs were dissolved in DMSO at a concentration of 10 μM.
4). Cells were incubated with drug at 10 nM concentration for 10 min at 37° C.
5). Cell cAMP concentrations were assayed using a scintillation proximity assay kit from Amersham Corp., Chicago, Ill.
6). Activities for the test compounds are expressed as a percentage of the isoproterenol response.
Production of the CHO cells transfected with human β2, or β1 adrenergic receptors, and compound test procedures utilizing the CHO cells, are described by Emorine et al. in their article "Molecular Characterization of the Human Beta3 -Adrenergic Receptor", Science 1989, 245(8), 1118-1121 and by Muzzin et al. in the article "An Adipose Tissue-Specific Beta3 -Adrenergic Receptor", J. Biol. Chem.1991, 266, 24053-24058.
^a Human β receptors expressed in Chinese hamster ovary cells,
compounds tested at 10 nM, results expressed as % of isoproterenol
activity (increase in cAMP) at 10 μM. EC50 (μM) values
determined for selected compounds.

Sequence of human β2 adrenergic receptor (P07550 whole entry): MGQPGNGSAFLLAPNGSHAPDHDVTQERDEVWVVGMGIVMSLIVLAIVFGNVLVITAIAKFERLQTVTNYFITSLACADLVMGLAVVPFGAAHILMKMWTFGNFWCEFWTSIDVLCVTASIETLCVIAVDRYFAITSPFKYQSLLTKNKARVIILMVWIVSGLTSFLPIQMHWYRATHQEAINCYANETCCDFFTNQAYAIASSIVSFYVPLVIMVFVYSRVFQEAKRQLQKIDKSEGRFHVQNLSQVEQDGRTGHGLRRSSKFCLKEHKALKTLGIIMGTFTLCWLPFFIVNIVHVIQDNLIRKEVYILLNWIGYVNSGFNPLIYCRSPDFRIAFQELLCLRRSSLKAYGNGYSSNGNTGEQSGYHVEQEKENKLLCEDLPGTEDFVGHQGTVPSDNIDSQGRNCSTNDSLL

SMILES | EC50
CC(Cc1ccc2c(c1)OC(C(=O)O)(C(=O)OC(C)C)O2)NCC(O)c1cccc(Cl)c1 (stereo not drawn) [Example 22, 5-{2-[2-(3-Chloro-phenyl)-2-hydroxy-ethylamino]-propyl}-benzo[1,3]dioxole-2,2-dicarboxylic acid isopropyl ester] | 15 nM
CC(Cc1ccc2c(c1)OC(C(=O)O)(C(=O)OCC1CC1)O2)NCC(O)c1cccc(Cl)c1 (stereo not drawn) [Example 69, 5-{2-[2-(3-Chloro-phenyl)-2-hydroxy-ethylamino]-propyl}-benzo[1,3]dioxole-2,2-dicarboxylic acid cyclopropylmethyl ester] | 79 nM

Same assay, conditions: 10 min; compounds tested at 10 nM, isoproterenol at 10 μM; CHO cells, 10 min at 37° C; read-out: β2: % of isoproterenol activity (increase in cAMP)

activation at 0.01 µM | SMILES
2% | CC(Cc1ccc2c(c1)OC(C(=O)OCC1CCCCC1)(C(=O)OCC1CCCCC1)O2)NCC(O)c1cccc(Cl)c1 (stereo not drawn) [Example 34, 5-{2-[2-(3-Chloro-phenyl)-2-hydroxy-ethylamino]-propyl}-benzo[1,3]dioxole-2,2-dicarboxylic acid bis-cyclohexylmethyl ester]
0% | CC(C)CCC(=O)OCOC(=O)C1(C(=O)OCOC(=O)CCC(C)C)Oc2ccc(CC(C)NCC(O)c3cccc(Cl)c3)cc2O1 (stereo not drawn) [Example 47, 5-{2-[2-(3-Chloro-phenyl)-2-hydroxyethylamino]propyl}benzo[1,3] dioxole-2,2-dicarboxylic acid bis-(4-methyl-pentanoyloxymethyl) ester]
8% | CCC(C)(C)C(=O)OCOC(=O)C1(C(=O)OCOC(=O)C(C)(C)CC)Oc2ccc(CC(C)NCC(O)c3cccc(Cl)c3)cc2O1 (stereo not drawn) [Example 58, 5-{2-[2-(3-Chloro-phenyl)-2-hydroxyethylamino]propyl}benzo[1,3] dioxole-2,2-dicarboxylic acid bis-(2,2-dimethyl-butyryloxymethyl) ester]
1% | CC(Cc1ccc2c(c1)OC(C(=O)OCOC(=O)C(C)C)(C(=O)OCOC(=O)C(C)C)O2)NCC(O)c1cccc(Cl)c1 (stereo not drawn) [Example 45, 5-{2-[2-(3-Chloro-phenyl)-2-hydroxyethylamino]propyl}benzo[1,3] dioxole-2,2-dicarboxylic acid bis-isobutyryloxymethyl ester]
2% | CC(Cc1ccc2c(c1)OC(C(=O)OCOC(=O)CC(C)(C)C)(C(=O)OCOC(=O)CC(C)(C)C)O2)NCC(O)c1cccc(Cl)c1 (stereo not drawn) [Example 53, 5-{2-[2-(3-Chloro-phenyl)-2-hydroxyethylamino]propyl}benzo[1,3] dioxole-2,2-dicarboxylic acid bis-(3,3-dimethyl-butyryloxymethyl) ester]
7% | C[C@H](Cc1ccc2c(c1)OC(C(=O)OCC1CCCO1)(C(=O)OCC1CCCO1)O2)NC[C@H](O)c1cccc(Cl)c1 (stereo partly drawn) [Example 91, 5-{(2R)-2-[(2R)-2-(3-Chloro-phenyl)-2-hydroxy-ethylamino]-propyl}-benzo[1,3]dioxole-2,2-dicarboxylic aicd bis-(tetrahydro-furan-2-ylmethyl) ester]
7% | C[C@H](Cc1ccc2c(c1)OC(C(=O)OCC1CCCCO1)(C(=O)OCC1CCCCO1)O2)NC[C@H](O)c1cccc(Cl)c1 (stereo partly drawn) [Example 90, 5-{(2R)-2-[(2R)-2-(3-Chloro-phenyl)-2-hydroxy-ethylamino]-propyl}-benzo[1,3]dioxole-2,2-dicarboxylic aicd bis-(tetrahydro-pyran-2-ylmethyl) ester]
0% | CC(Cc1ccc2c(c1)OC(C(=O)OCOC(=O)C1CCCCC1)(C(=O)OCOC(=O)C1CCCCC1)O2)NCC(O)c1cccc(Cl)c1 (stereo not drawn) [Example 50, 5-{2-[2-(3-Chloro-phenyl)-2-hydroxyethylamino]propyl}benzo[1,3] dioxole-2,2-dicarboxylic acid bis-cyclohexanecarbonyloxymethyl ester]
22% | CC(Cc1ccc2c(c1)OC(C(=O)OCCC1CCCC1)(C(=O)OCCC1CCCC1)O2)NCC(O)c1cccc(Cl)c1 (stereo not drawn) [Example 41, 5-{2-[2-(3-Chloro-phenyl)-2-hydroxy-ethylamino]-propyl}-benzo[1,3]dioxole-2,2-dicarboxylic acid bis-(2-cyclopentyl-ethyl) ester]

Further lines, the compound ahead of its results:

SMILES | activation at 0.01 µM
CCCCCC(=O)OCOC(=O)C1(C(=O)OCOC(=O)CCCCC)Oc2ccc(CC(C)NCC(O)c3cccc(Cl)c3)cc2O1 (stereo not drawn) [Example 48, 5-{2-[2-(3-Chloro-phenyl)-2-hydroxyethylamino]propyl}benzo[1,3] dioxole-2,2-dicarboxylic acid bis-hexanoyloxymethyl ester] | 4%
CC(Cc1ccc2c(c1)OC(C(=O)O)(C(=O)OCCOC(C)(C)C)O2)NCC(O)c1cccc(Cl)c1 (stereo not drawn) [Example 7, 5-{2-[2-(3-Chloro-phenyl)-2-hydroxy-ethylamino]-propyl}-benzo[1,3]dioxole-2,2-dicarboxylic acid (2-tert-butoxy-ethyl) ester] | 2%
CC(Cc1ccc2c(c1)OC(C(=O)OC(C)OC(=O)C(C)(C)C)(C(=O)OC(C)OC(=O)C(C)(C)C)O2)NCC(O)c1cccc(Cl)c1 (stereo not drawn) [Example 52] | 2%
CCCCCCOC(=O)C1(C(=O)OCCCCCC)Oc2ccc(CC(C)NCC(O)c3cccc(Cl)c3)cc2O1 (stereo not drawn) [Example 14, 5-{2-[2-(3-Chloro-phenyl)-2-hydroxy-ethylamino]-propyl}-benzo[1,3]dioxole-2,2-dicarboxylic acid dihexyl ester] | 5%
CC(=O)OCOC(=O)C1(C(=O)OCOC(C)=O)Oc2ccc(CC(C)NCC(O)c3cccc(Cl)c3)cc2O1 (stereo not drawn) [Example 42, 5-{2-[2-(3-Chloro-phenyl)-2-hydroxyethylamino]propyl}benzo[1,3] dioxole-2,2-dicarboxylic acid bis-acetoxymethyl ester] | 0%
C[C@H](Cc1ccc2c(c1)OC(C(=O)O)(C(=O)OCC13CC4CC(CC(C4)C1)C3)O2)NC[C@H](O)c1cccc(Cl)c1 (stereo partly drawn) [Example 79, 5-{(2R)-2-[(2R)-2-(3-Chloro-phenyl)-2-hydroxy-ethylamino]-propyl}-benzo[1,3]dioxole-2,2-dicarboxylic acid adamantan-1-ylmethyl ester] | 0%
CC(Cc1ccc2c(c1)OC(C(=O)OCC(=O)OC(C)C)(C(=O)OCC(=O)OC(C)C)O2)NCC(O)c1cccc(Cl)c1 (stereo not drawn) [Example 27, 5-{2-[2-(3-Chloro-phenyl)-2-hydroxy-ethylamino]-propyl}-benzo[1,3]dioxole-2,2-dicarboxylic acid bis-isopropoxycarbonylmethyl ester] | 5%
COC(=O)C(C)OC(=O)C1(C(=O)OC(C)C(=O)OC)Oc2ccc(CC(C)NCC(O)c3cccc(Cl)c3)cc2O1 (stereo not drawn) [Example 26, 5-{2-[2-(3-Chloro-phenyl)-2-hydroxy-ethylamino]-propyl}-benzo[1,3]dioxole-2,2-dicarboxylic acid bis-(1-methoxycarbonyl-ethyl) ester] | 7%

Same assay, conditions: CHO, 10 min, read-out: β2: % of isoproterenol activity (increase in cAMP)

SMILES | activation at 0.01 µM
CC(Cc1ccc2c(c1)OC(C(=O)OCCOc1ccccc1)(C(=O)OCCOc1ccccc1)O2)NCC(O)c1cccc(Cl)c1 (stereo not drawn) [Example 4, 5-{2-[2-(3-Chloro-phenyl)-2-hydroxy-ethylamino]-propyl}-benzo[1,3]dioxole-2,2-dicarboxylic acid bis-(2-phenoxy-ethyl) ester hydrochloride salt] | 1%
CCOCCOC(=O)C1(C(=O)OCCOCC)Oc2ccc(CC(C)NCC(O)c3cccc(Cl)c3)cc2O1 (stereo not drawn) [Example 5, 5-{2-[2-(3-Chloro-phenyl)-2-hydroxy-ethylamino]-propyl}-benzo[1,3]dioxole-2,2-dicarboxylic acid bis-(2-ethoxy-ethyl) ester hydrochloride salt] | 4%
